Laboratory results published in patent US8759366B2, “Aminopyrimidines as SYK inhibitors” (Merck Sharp & Dohme Corp., priority 2009, dated 2014).
Structures can show the parent of a compound that is named as a salt.

Each compound was assayed against recombinant human SYK (GST-hSYK fusion protein) (Homo sapiens (Human), UniProt P43405). Settings: read-out: rhSYK Activity; Table 33-A.
Source text: Homogeneous Time-Resolved Fluorescence (HTRF) Assay for the Recombinant Human SYK Enzyme:

IC50 [nM] | Structure (SMILES)
< 100 | Cc1cc(Nc2nccc(C(F)(F)F)n2)cc(-c2cnc(C3(O)CCC(c4ccc(C(=O)O)cc4)CC3)s2)c1 (stereo not shown) [33A-17]

Same assay, conditions: read-out: rhSYK Activity; Table 33B

IC50 [nM] | Structure (SMILES)
< 100 | Cc1cc(Nc2nccc(C(F)(F)F)n2)cc(-c2cnc(C3(O)CCC(C(=O)O)C(C)C3C)s2)c1 (single isomer, unassigned) [Example 33B-38]

Same assay, conditions: read-out: rhSYK Activity; Table 113A

IC50 [nM] | Structure (SMILES)
< 100 | CCOC(=O)C1CCC(O)(c2ncc(-c3cc(C)cc(Nc4nccc(C(F)(F)F)n4)c3)s2)C(C)C1C (stereo not shown) [Example 113A-77]

These compounds were tested against rhSYK (Homo sapiens (Human), UniProt P43405). Settings: read-out: rhSYK activity.

IC50 [nM] | Structure (SMILES)
< 100 | Cc1cc(Nc2nccc(C(F)(F)F)n2)cc(-c2cnc(C3(O)CCC(=O)CC3)s2)c1 [Example 7, 4-hydroxy-4-[5-(3-methyl-5-{[4-(trifluoromethyl)pyrimidin-2-yl]amino}phenyl)-1,3-thiazol-2-yl]cyclohexanone]
100 to 1000 | Cc1cc(Nc2nccc(C(F)(F)F)n2)cc(-c2cnc(C3(O)CCN(S(=O)(=O)c4ccccc4)CC3)s2)c1 [Example 50, 4-[5-(3-methyl-5-{[4-(trifluoromethyl)pyrimidin-2-yl]amino}phenyl)-1,3-thiazol-2-yl]-1-(phenylsulfonyl)piperidin-4-ol]
< 100 | Cc1cc(Nc2nccc(C(F)(F)F)n2)cc(-c2cnc(C3(O)CCN(S(=O)(=O)NC(=O)OC(C)(C)C)CC3)s2)c1 [Example 48, tert-butyl({4-hydroxy-4-[5-(3-methyl-5-{[4-(trifluoromethyl)pyrimidin-2-yl]amino}phenyl)-1,3-thiazol-2-yl]piperidin-1-yl}sulfonyl)carbamate]
< 100 | Nc1cc(Nc2nccc(C(F)(F)F)n2)cc(-c2cnc(C3(O)CCC3)s2)c1 [Example 17, 1-[5-(3-amino-5-{[4-(trifluoromethyl)pyrimidin-2-yl]amino}phenyl)-1,3-thiazol-2-yl]cyclobutanol]
< 100 | Cc1cc(Nc2nccc(C(F)(F)F)n2)cc(-c2cnc(C3(C(N)=O)CCC(N)CC3)s2)c1 (stereo not drawn) [molecule A, cis-4-amino-1-[5-(3-methyl-5-{[4-(trifluoromethyl)pyrimidin-2-yl]amino}phenyl)-1,3-thiazol-2-yl]cyclohexanecarboxamide]
100 to 1000 | CCOC(=O)C1CCC(O)(c2ncc(-c3cc(C)cc(Nc4nccc(C)n4)c3)s2)CC1c1ccc(F)cc1 (stereo not shown) [Example 4C-28]
< 100 | COc1ccnc(Nc2cc(C)cc(-c3cnc(C4(O)CCC5(CC4)OCCO5)s3)c2)n1 [Example 4B-16]
< 100 | COC1(c2ncc(-c3cc(C)cc(Nc4nccc(C(F)(F)F)n4)c3)s2)CCC(C(=O)O)CC1 (stereo not drawn) [Example 40(1), 2-({3-[2-(cis-4-Carboxy-1-methoxycyclohexyl)-1,3-thiazol-5-yl]-5-methylphenyl}amino)-4-(trifluoromethyl)pyrimidin-1-ium trifluoroacetate]
< 100 | Cc1cc(Nc2nccc(C(F)(F)F)n2)cc(-c2cnc(C3(O)CCN(C(=O)CCCC(=O)O)CC3)s2)c1 [4D-13]
100 to 1000 | Cc1cc(Nc2nccc(C(F)(F)F)n2)cc(-c2cnc(C3(O)CCN(C(=O)OC(C)(C)C)C(C(F)(F)F)C3)s2)c1 (stereo not shown) [4D-15]
< 100 | COC(=O)C1CCC(O)(c2ncc(-c3cc(C)cc(Nc4nccc(C)n4)c3)s2)CC1C(C)C (stereo not shown) [Example 4C-17]
< 100 | Cc1cc(Nc2nccc(C(F)(F)F)n2)cc(-c2cnc(C3(O)C=CCCCC3)s2)c1 (stereo not shown) [Example 4B-55]
< 100 | Cc1cc(Nc2nccc(C(F)(F)F)n2)cc(-c2cnc(C3(O)CCOCC3)s2)c1 [Example 4B-13]
< 100 | Cc1cc(Nc2nccc(C(F)(F)F)n2)cc(-c2cnc(C3(O)C4CC5CC3CC(O)(C5)C4)s2)c1 (stereo not shown) [Example 4B-42]
< 100 | Cc1cc(Nc2nccc(C)n2)cc(-c2cnc(C3(O)CCC(CN)CC3)s2)c1 (stereo not shown) [Example 4C-3]

More lines, now with the values behind:

Structure (SMILES) | IC50 [nM]
Cc1cc(Nc2nccc(C(F)(F)F)n2)cc(-c2cncs2)c1 [Intermediate 4, N-[3-methyl-5-(1,3-thiazol-5-yl)phenyl]-4-(trifluoromethyl)pyrimidin-2-amine] | < 100
Cc1cc(Nc2nccc(C(F)(F)F)n2)cc(-c2cnc(C(O)C(F)(F)F)s2)c1 (stereo not shown) [Example 6, 2,2,2-trifluoro-1-[5-(3-methyl-5-{[4-(trifluoromethyl)pyrimidin-2-yl]amino}phenyl)-1,3-thiazol-2-yl]ethanol] | < 100
CC(C)(c1ncc(-c2cc(N)cc(Nc3nccc(C(F)(F)F)n3)c2)s1)S(N)(=O)=O [Example 71, 2-[5-(3-amino-5-{[4-(trifluoromethyl)pyrimidin-2-yl]amino}phenyl)-1,3-thiazol-2-yl]propane-2-sulfonamide] | < 100
C#Cc1cc(Nc2nccc(C(F)(F)F)n2)cc(-c2cnc(C(C)(C)O)s2)c1 [Example 29, 2-[5-(3-ethynyl-5-{[4-(trifluoromethyl)pyrimidin-2-yl]amino}phenyl)-1,3-thiazol-2-yl]propan-2-ol] | < 100
Cc1cc(Nc2nccc(C(F)(F)F)n2)cc(-c2cnc(C(C)C)s2)c1 [Example 13, N-{3-methyl-5-[2-(1-methylethyl)-1,3-thiazol-5-yl]phenyl}-4-(trifluoromethyl)pyrimidin-2-amine] | < 100
O=C(c1ncc(-c2cccc(Nc3nccc(C(F)(F)F)n3)c2)s1)C(F)(F)F [Example 6-1] | < 100
Fc1ccc(Nc2nccc(C(F)(F)F)n2)cc1Br [N-(3-bromo-4-fluorophenyl)-4-(trifluoromethyl)pyrimidin-2-amine] | 1000 to 10000
Cc1cc(Nc2ncc(Cl)cn2)cc(-c2cnc(C(O)(CO)CO)s2)c1 [Ex 5-20] | 100 to 1000
Cc1cc(Nc2nccc(C(F)(F)F)n2)cc(-c2cnc(C(NC(=O)C3(C(N)=O)CC3)(C3CC3)C3CC3)s2)c1 [Example 67, N-{dicyclopropyl[5-(3-methyl-5-{[4-(trifluoromethyl)pyrimidin-2-yl]amino}phenyl)-1,3-thiazol-2-yl]methyl}cyclopropane-1,1-dicarboxamide] | < 100
OC1(c2ncc(-c3cc(Nc4nccc(C(F)(F)F)n4)cc(C(F)F)c3)s2)CCC1 [Example 28, 1-{5-[3-(difluoromethyl)-5-{[4-(trifluoromethyl)pyrimidin-2-yl]amino}phenyl]-1,3-thiazol-2-yl}cyclobutanol] | < 100
Cc1cc(Nc2nccc(C(F)(F)F)n2)cc(-c2cnc(C3CCC3)s2)c1 [13-1] | 100 to 1000
Cc1cc(Nc2nccc(C(F)(F)F)n2)cc(-c2cnc(C3(O)C4CC5C(C4C(=O)O)C53)s2)c1 (stereo not shown) [Example 4B-36] | < 100
FC(F)(F)c1cc(Br)cc(Nc2nccc(C(F)(F)F)n2)c1 [N-[3-bromo-5-(trifluoromethyl)phenyl]-4-(trifluoromethyl)pyrimidin-2-amine] | 1000 to 10000
Cc1cc(Nc2ncc(F)c(C)n2)cc(-c2cncs2)c1 [Intermediate 49, 5-Fluoro-4-methyl-N-[3-methyl-5-(1,3-thiazol-5-yl)phenyl]pyrimidin-2-amine] | < 100
Cc1cc(Nc2ncc(F)c(C3CC3)n2)cc(-c2cnc(C(O)(CO)C(F)(F)F)s2)c1 (stereo not shown) [Example 58, 2-(5-{3-[(4-cyclopropyl-5-fluoropyrimidin-2-yl)amino]-5-methylphenyl}-1,3-thiazol-2-yl)-3,3,3-trifluoropropane-1,2-diol] | < 100
Cc1cc(Nc2nccc(C(F)(F)F)n2)cc(-c2cnc(C3(NS(N)(=O)=O)COC3)s2)c1 [Example 63, N-{3-[5-(3-methyl-5-{[4-(trifluoromethyl)pyrimidin-2-yl]amino}phenyl)-1,3-thiazol-2-yl]oxetan-3-yl}sulfuric diamide] | < 100
